Measured values taken from patent publication US10004732B2 (Novartis AG, priority 2014, dated 2018).

Assays:
PI 3-kinase alpha [1] = target: T1, PI 3-kinase alpha (Homo sapiens, UniProt P42336); assay: Kinase Glo Luminescent Kinase Assay (Kglo), assay A; type: biochemical; conditions: read-out: Assay A PI3Kα IC50
PI 3-kinase beta [2] = target: T2, PI 3-kinase beta (Homo sapiens, UniProt P42338); assay: Kinase Glo Luminescent Kinase Assay (Kglo), assay B; type: biochemical; conditions: read-out: Assay B PI3Kβ IC50
Target sequence in this assay (P42338 whole entry): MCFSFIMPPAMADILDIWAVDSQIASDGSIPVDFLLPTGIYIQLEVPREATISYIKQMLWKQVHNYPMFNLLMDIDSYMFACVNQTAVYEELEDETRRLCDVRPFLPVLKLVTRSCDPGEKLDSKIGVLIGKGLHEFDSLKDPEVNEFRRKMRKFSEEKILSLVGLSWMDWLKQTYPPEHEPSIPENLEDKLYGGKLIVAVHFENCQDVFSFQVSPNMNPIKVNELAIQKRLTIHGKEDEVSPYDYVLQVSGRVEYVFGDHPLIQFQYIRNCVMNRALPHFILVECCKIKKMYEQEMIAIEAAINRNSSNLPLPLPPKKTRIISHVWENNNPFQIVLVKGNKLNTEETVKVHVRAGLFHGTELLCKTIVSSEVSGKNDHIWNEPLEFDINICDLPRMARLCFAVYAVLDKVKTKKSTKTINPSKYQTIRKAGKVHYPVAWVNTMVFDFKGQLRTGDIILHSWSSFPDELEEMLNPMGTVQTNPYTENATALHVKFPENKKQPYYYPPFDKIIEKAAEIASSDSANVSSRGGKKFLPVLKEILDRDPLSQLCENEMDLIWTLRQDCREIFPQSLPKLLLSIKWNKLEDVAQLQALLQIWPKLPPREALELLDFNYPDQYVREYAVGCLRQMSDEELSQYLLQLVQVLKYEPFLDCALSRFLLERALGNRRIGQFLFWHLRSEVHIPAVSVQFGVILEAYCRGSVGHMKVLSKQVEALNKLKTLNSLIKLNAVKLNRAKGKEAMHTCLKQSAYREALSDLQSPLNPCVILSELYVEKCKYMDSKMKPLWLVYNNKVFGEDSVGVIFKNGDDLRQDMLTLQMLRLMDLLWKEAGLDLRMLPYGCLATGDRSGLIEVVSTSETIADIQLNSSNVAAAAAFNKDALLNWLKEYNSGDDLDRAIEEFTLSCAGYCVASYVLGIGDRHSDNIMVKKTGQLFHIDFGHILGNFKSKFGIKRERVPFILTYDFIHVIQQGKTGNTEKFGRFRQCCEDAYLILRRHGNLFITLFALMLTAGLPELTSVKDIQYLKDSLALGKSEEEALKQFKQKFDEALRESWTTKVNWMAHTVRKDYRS
Target sequence in this assay (P27986 461-568 partner): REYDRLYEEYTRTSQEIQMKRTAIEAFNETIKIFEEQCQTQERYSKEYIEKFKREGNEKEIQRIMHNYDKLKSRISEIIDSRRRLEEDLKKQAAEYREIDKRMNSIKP
Method: (§1) Kinase Glo Luminescent Kinase Assay (Kglo) for Pb 3-Kinase Alpha (A), Pb 3-Kinase Beta (B), Vps34 (C), Pb 4-Kinase Beta (D)
(§2) The Kinase Glo Luminescent Kinase Assay (Promega, Madison/Wis., USA) is a homogeneous HTS method of measuring kinase activity by quantifying the amount of ATP remaining in solution following a kinase reaction.
(§3) L-α-phosphatidylinositol (PI), provided as 10 mg/ml solution in methanol, was transferred into a glass tube and dried under a nitrogen beam. It was then resuspended in 3% OctylGlucoside (1-0-n-octyl-beta-D-glucopyranoside) by vortexing and stored at 4° C. 5 μL of a mix of PI/OctylGlucoside with the PI 3-kinase alpha and PI 3-kinase beta subtypes, or Vps34 or PI 4-kinase beta were added. Kinase reactions were started by the addition of 5 μl of an ATP-mix containing in a final volume 10 μL 10 mM TRIS-HCl pH 7.5, 3 mM MgCl2, 50 mM NaCl, 0.05% CHAPS, 1 mM DTT and 1 μM ATP at room temperature.
(§4) All fits were performed with the program XLfit4 (ID Business Solutions, Guildford, UK).

Vps34 = Vps34 (Homo sapiens, UniProt Q8NEB9); assay: Kinase Glo Luminescent Kinase Assay (Kglo), assay C; type: biochemical; conditions: read-out: Assay C VPS34 IC50
Method: as §1, §2, §3, §4

PI 4-kinase beta = PI 4-kinase beta (Homo sapiens, UniProt Q9UBF8); assay: Kinase Glo Luminescent Kinase Assay (Kglo), assay D; type: biochemical; conditions: read-out: Assay D PI4Kβ IC50
PI 3-kinase gamma [3] = target: T3, PI 3-kinase gamma (Homo sapiens, UniProt P48736); assay: TR-FRET Adapta assay, assay E; type: biochemical; conditions: read-out: Assay E PI3Kγ IC50
mTOR = mTOR (Homo sapiens, UniProt P42345); assay: Lanthascreen kinase binding assay, assay G; conditions: read-out: Assay G mTOR IC50
Method: Lanthascreen™ Kinase Binding Assay for mTOR (G)
Binding of an inhibitor to the kinase competes for binding with the tracer, resulting in a loss of FRET.
50 nL of compound dilutions were dispensed onto white 384-well small volume polystyrene plate.

PI 3-kinase alpha [4] = target: T1, PI 3-kinase alpha; assay: Cellular assay H1, p-Akt (S473) in Rat-1 cells, Surefire format; type: cell-based; conditions: non-asterisked data: version H1 (Surefire format), Rat-1 cells; read-out: Assay H PI3Kα IC50
PI 3-kinase beta [5] = target: T2, PI 3-kinase beta; assay: Cellular assay I1, p-Akt (S473) in Rat-1 cells, Surefire format; type: cell-based; conditions: non-asterisked data: version I1 (Surefire format), Rat-1 cells; read-out: Assay I PI3Kβ IC50
Target sequence in this assay (P42338 whole entry): as the sequence (P42338 whole entry) above
Target sequence in this assay (Q63787 whole entry partner): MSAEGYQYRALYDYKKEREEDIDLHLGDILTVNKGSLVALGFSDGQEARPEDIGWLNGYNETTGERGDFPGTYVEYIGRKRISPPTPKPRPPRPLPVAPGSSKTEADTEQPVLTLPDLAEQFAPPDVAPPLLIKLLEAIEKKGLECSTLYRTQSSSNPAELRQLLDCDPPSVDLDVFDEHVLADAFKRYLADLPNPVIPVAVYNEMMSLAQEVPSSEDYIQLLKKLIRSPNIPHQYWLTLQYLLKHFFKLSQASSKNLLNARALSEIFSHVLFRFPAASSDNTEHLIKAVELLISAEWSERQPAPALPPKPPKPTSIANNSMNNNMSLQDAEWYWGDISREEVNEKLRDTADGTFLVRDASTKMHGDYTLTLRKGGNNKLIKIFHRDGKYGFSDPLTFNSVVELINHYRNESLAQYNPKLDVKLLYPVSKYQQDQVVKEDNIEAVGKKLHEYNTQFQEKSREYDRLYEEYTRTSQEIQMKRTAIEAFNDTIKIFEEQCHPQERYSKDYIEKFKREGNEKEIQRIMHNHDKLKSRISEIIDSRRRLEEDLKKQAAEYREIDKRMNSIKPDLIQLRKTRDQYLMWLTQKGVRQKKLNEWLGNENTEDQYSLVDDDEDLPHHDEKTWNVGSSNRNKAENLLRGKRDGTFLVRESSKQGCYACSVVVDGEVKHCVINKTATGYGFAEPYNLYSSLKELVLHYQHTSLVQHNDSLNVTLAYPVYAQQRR

PI 3-kinase delta [6] = target: T4, PI 3-kinase delta (Homo sapiens, UniProt O00329); assay: Cellular assay J1, p-Akt (S473) in Rat-1 cells, Surefire format; type: cell-based; conditions: non-asterisked data: version J1 (Surefire format), Rat-1 cells; read-out: Assay J PI3Kδ IC50
Target sequence in this assay (O00329 whole entry): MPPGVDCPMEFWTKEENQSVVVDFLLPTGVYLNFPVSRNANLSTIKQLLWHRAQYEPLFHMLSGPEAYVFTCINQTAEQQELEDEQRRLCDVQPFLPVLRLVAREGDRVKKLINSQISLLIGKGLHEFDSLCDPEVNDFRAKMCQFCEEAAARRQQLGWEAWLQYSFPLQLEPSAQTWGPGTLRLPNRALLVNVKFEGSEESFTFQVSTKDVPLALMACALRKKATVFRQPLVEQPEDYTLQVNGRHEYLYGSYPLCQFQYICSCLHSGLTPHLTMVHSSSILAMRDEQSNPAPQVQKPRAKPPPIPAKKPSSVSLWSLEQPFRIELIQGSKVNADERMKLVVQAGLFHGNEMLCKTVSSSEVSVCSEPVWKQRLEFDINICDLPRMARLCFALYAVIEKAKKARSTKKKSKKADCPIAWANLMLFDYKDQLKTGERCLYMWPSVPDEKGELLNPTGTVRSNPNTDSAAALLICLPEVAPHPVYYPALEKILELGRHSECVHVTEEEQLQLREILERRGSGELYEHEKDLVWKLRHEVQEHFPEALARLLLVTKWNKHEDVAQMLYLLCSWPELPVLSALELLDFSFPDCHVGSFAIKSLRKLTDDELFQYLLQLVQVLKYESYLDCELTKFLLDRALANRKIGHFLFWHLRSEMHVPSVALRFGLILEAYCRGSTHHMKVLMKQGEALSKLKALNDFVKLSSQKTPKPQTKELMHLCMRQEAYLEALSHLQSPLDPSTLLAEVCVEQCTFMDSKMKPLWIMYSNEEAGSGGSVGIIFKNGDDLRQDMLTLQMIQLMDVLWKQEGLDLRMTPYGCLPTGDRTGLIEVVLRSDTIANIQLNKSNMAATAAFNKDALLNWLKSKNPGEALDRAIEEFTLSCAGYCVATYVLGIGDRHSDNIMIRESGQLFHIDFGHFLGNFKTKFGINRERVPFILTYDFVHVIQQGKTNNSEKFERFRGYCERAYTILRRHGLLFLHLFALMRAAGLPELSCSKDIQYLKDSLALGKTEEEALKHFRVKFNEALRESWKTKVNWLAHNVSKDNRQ
Target sequence in this assay (Q63787 whole entry partner): as the sequence (Q63787 whole entry partner) above

PI 3-kinase gamma [7] = target: T3, PI 3-kinase gamma; assay: Cellular U937 AKT assay K1 (MSD); type: cell-based; conditions: U937 cells, K1 format; read-out: Assay K1 PI3Kγ IC50
[8] = system: IL-8-induced neutrophil shape change in human whole blood; assay: Whole blood neutrophil shape change assay (L); type: cell-based; conditions: Homo sapiens, Neutrophil, IL-8, human whole blood, read-out: Assay L WBSC IC50
PI 3-kinase delta [9] = target: T4, PI 3-kinase delta; assay: TR-FRET Adapta assay, assay F
Target sequence in this assay (O00329 whole entry): as the sequence (O00329 whole entry) above
Target sequence in this assay (P27986 461-568 partner): as the sequence (P27986 461-568 partner) above

[10] = Microsomal clearance assay (M); conditions: intrinsic clearance in rat liver microsomes
Method: The experiments were performed in 96-well glass plates at 37° C. on an automated Tecan EVO platform. Test compounds at a concentration of 10 mM in pure DMSO were diluted 1:1000 in water to 10 μM. […] Reactions were initiated by the addition of 150 μL of a cofactor solution containing 2 mM NADPH.

PI 4-kinase beta, sequence (Q9UBF8 whole entry): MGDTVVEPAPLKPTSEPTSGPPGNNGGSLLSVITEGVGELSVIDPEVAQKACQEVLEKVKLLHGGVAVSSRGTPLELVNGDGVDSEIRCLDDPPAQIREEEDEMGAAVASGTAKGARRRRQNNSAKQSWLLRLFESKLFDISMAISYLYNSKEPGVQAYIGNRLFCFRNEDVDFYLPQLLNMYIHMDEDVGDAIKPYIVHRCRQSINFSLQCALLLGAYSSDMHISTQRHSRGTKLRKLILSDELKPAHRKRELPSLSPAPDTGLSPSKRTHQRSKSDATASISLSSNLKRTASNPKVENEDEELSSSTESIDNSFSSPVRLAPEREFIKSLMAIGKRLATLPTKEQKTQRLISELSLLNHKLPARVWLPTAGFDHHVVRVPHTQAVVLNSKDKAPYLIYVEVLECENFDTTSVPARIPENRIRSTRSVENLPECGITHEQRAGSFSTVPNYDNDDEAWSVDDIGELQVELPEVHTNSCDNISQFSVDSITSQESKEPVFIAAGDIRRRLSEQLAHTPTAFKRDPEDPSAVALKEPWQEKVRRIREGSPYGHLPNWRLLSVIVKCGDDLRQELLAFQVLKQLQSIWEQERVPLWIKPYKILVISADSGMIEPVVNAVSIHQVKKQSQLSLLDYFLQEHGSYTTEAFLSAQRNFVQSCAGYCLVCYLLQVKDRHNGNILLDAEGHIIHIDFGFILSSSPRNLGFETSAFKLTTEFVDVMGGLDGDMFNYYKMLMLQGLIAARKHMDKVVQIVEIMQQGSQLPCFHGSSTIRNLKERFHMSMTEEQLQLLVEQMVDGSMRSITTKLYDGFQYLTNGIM
T3 sequence (P48736 whole entry): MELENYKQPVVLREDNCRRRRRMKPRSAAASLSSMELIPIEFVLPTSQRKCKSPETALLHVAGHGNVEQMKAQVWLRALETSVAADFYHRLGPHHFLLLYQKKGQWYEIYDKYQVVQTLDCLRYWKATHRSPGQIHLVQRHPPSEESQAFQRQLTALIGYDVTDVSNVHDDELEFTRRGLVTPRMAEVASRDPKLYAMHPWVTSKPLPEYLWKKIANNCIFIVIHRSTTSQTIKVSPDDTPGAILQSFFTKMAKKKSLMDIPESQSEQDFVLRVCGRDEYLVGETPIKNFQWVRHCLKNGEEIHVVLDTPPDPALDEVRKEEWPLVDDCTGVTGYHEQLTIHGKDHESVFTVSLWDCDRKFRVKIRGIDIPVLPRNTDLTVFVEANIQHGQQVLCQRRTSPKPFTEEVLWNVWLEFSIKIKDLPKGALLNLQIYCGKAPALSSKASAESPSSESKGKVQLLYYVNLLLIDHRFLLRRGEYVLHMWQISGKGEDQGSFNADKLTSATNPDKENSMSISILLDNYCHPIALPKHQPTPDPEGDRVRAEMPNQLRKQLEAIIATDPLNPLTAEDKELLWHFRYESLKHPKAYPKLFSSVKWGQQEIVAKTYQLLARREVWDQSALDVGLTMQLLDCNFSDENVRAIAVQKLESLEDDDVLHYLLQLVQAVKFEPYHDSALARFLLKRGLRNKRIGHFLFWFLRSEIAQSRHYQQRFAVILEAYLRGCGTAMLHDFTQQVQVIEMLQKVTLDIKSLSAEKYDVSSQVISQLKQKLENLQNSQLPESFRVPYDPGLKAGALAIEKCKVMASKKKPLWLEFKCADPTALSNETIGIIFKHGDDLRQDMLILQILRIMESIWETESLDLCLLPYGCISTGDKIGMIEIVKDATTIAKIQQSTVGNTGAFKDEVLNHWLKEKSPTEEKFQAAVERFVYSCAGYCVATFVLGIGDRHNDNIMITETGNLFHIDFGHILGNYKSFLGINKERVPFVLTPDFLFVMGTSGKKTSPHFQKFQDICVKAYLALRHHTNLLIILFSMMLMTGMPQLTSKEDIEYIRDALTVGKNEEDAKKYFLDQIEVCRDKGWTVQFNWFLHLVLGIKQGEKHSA

| Compound | IC50 (PI 3-kinase alpha [1]) [nM] | IC50 (PI 3-kinase beta [2]) [nM] | IC50 (Vps34) [nM] | IC50 (PI 4-kinase beta) [nM] | IC50 (PI 3-kinase gamma [3]) [nM] | IC50 (mTOR) [nM] | IC50 (PI 3-kinase alpha [4]) [nM] | IC50 (PI 3-kinase beta [5]) [nM] | IC50 (PI 3-kinase delta [6]) [nM] | IC50 (PI 3-kinase gamma [7]) [nM] | IC50 [8] [nM] | IC50 (PI 3-kinase delta [9]; Assay F PI3Kδ IC50 (μM)) [µM] | Assay M RLM CI(int) [10] [µL/min/mg] | IC50 (PI 3-kinase delta [9]; read-out: Assay F PI3Kδ IC50) [µM] |
| --- | --- | --- | --- | --- | --- | --- | --- | --- | --- | --- | --- | --- | --- | --- |
| Cc1ccc(S(=O)(=O)N[C@H]2CC[C@](C)(O)CC2)cc1-c1cnc(N)c(-n2cncn2)n1 [Example 69a, 3-(5-amino-6-(1H-1,2,4-triazol-1-yl)pyrazin-2-yl)-N-((1r,4r)-4-hydroxy-4-methylcyclohexyl)-4-methylbenzenesulfonamide] | 390 | 3500 | > 10000 | > 10000 | 38 | 9200 | 3300 | 4420 | 2660 | 103 | 1150 | 0.53 | 49 | – |
| Cc1ccc(S(=O)(=O)NCC(C)(C)CO)cc1-c1cnc(N)c(-n2cncn2)n1 [Example 73, 3-(5-Amino-6-(1H-1,2,4-triazol-1-yl)pyrazin-2-yl)-N-(3-hydroxy-2,2-dimethylpropyl)-4-methylbenzenesulfonamide] | 350 | 1830 | > 9100 | > 9100 | 15 | > 9100 | 2260 | 5380 | 2000 | 177 | 803 | – | 64 | 0.39 |
| Cc1ncc(-c2nc(-c3cc(S(=O)(=O)N4CCNC(C(F)(F)F)C4)ccc3C)cnc2N)s1 (stereo not shown) [Example 118, 5-(2-Methyl-5-(3-(trifluoromethyl)piperazin-1-ylsulfonyl)phenyl)-3-(2-methylthiazol-5-yl)pyrazin-2-amine] | 30 | 470 | 1460 | 4720 | 11 | 460 | 630 | 1590 | 530 | 102 | 898 | – | 264 | 0.13 |
| Cc1ccc(S(=O)(=O)NCCC(C)(C)O)cc1-c1cnc(N)c(-c2csc(CN3CCOCC3)c2)n1 [Example 30, 3-[5-Amino-6-(5-morpholin-4-ylmethyl-thiophen-3-yl)-pyrazin-2-yl]-N-(3-hydroxy-3-methyl-butyl)-4-methyl-benzenesulfonamide] | 300 | 5210 | > 9100 | 7890 | 24 | 6990 | 3810 | 1650 | 480 | 98 | 407 | – | 116 | 0.05 |
| Cc1ccc(S(=O)(=O)NCCC(C)(C)O)cc1-c1cnc(N)c(-n2cncn2)n1 [Example 64, 3-(5-Amino-6-(1H-1,2,4-triazol-1-yl)pyrazin-2-yl)-N-(3-hydroxy-3-methylbutyl)-4-methylbenzenesulfonamide] | 370 | 3850 | 8490 | 6610 | 46 | > 9100 | 1240 | 4370 | 1190 | 189 | 543 | – | 61 | 0.25 |

Results, then the molecule that gave them:

| IC50 (PI 3-kinase alpha [1]) [nM] | IC50 (PI 3-kinase beta [2]) [nM] | IC50 (Vps34) [nM] | IC50 (PI 4-kinase beta) [nM] | IC50 (PI 3-kinase gamma [3]) [nM] | IC50 (mTOR) [nM] | IC50 (PI 3-kinase alpha [4]) [nM] | IC50 (PI 3-kinase beta [5]) [nM] | IC50 (PI 3-kinase delta [6]) [nM] | IC50 (PI 3-kinase gamma [7]) [nM] | IC50 [8] [nM] | IC50 (PI 3-kinase delta [9]; Assay F PI3Kδ IC50 (μM)) [µM] | Assay M RLM CI(int) [10] [µL/min/mg] | IC50 (PI 3-kinase delta [9]; read-out: Assay F PI3Kδ IC50) [µM] | Compound |
| --- | --- | --- | --- | --- | --- | --- | --- | --- | --- | --- | --- | --- | --- | --- |
| 160 | 690 | > 9100 | 1000 | 14 | > 9100 | 5510 | > 10000 | 3590 | 730 | 601 | – | 50 | 0.26 | Cc1ccc(S(=O)(=O)NCCC(C)(C)O)cc1-c1cnc(N)c(-c2cn[nH]c2)n1 [Example 119.33] |
| 390 | 3790 | 6230 | 6610 | 22 | > 9100 | 4010 | 3700 | 2350 | 81 | 1240 | – | 21 | 0.19 | Cc1ccc(S(=O)(=O)NCCC(C)(C)O)cc1-c1cnc(N)c(-c2cnn(C)c2)n1 [Example 119.16] |
